The text below walks through data of US20100056565A1, “Heterocyclic Derivatives as M3 Muscarinic Receptors” (priority 2007, published 2010).

A word on the Ki: it is the equilibrium dissociation constant of an inhibitor or competing ligand from its target.

Structures are written as SMILES. Counter-ions that a name gives are not always drawn.

The target of this experiment is T1, Recombinant human M3 receptor (Homo sapiens, UniProt P20309).
T1 construct: expressed in transfected cells; host or cells: CHO-K1 cells (membranes)
T1 sequence (P20309 whole entry): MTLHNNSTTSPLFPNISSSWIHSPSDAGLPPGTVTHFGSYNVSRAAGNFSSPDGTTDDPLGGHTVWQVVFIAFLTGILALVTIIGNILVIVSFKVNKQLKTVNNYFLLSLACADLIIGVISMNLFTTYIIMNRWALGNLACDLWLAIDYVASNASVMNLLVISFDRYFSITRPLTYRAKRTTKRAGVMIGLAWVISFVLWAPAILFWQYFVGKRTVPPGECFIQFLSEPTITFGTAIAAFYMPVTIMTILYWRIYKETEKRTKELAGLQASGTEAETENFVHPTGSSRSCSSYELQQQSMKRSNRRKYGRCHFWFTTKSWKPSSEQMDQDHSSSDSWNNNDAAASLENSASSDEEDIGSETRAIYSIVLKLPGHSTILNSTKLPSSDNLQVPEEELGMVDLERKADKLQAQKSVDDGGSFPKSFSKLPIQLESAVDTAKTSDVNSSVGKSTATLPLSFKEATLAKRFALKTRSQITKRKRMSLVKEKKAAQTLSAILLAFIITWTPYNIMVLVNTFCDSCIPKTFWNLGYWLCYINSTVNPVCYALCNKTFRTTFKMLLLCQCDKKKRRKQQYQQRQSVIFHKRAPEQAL
Description: biochemical. The format is binding. Conditions: SPA format; read-out: M3 Ki (SPA format).
As for `O=C(N[C@@H]1C[N+]2(Cc3cnc([C@](O)(c4ccccc4)C4CCCCC4)o3)CCC1CC2)c1ccccc1` [Example 15, (S)-3-Benzoylamino-1-[2-((R)-cyclohexyl-hydroxy-phenyl-methyl)-oxazol-5-ylmethyl]-1-azonia-bicyclo[2.2.2]octane; formate], the Ki was < 5 nM.

`O[C@](c1ccccc1)(c1ncc(C[N+]23CCC(CC2)[C@@H](CSc2ccc(F)cc2)C3)o1)C1CCCCC1` [Example 106, (R)-1-[2-((R)—Cyclohexyl-hydroxy-phenyl-methyl)-oxazol-5-ylmethyl]-3-(4-fluoro-phenylsulfanylmethyl)-1-azonia-bicyclo[2.2.2]octane; bromide]: the Ki is < 5 nM.

As for `OC(c1ccccc1)(c1ccccc1)c1ncc(C[N+]23CCC(CC2)C(CCc2ccccc2)C3)o1` (stereo not drawn) [Example 37, 1-[2-(Hydroxy-diphenyl-methyl)-oxazol-5-ylmethyl]-3-phenethyl-1-azonia-bicyclo[2.2.2]octane; bromide], the Ki is < 5 nM.

As for `OC(c1ccccc1)(c1ccccc1)c1ncc(C[N+]23CCC(CC2)[C@@H](Oc2ccc(Cl)c(Cl)c2)C3)o1` [Example 78, (R)-3-(3,4-dichloro-phenoxy)-1-[2-(hydroxy-diphenyl-methyl)-oxazol-5-ylmethyl]-1-azonia-bicyclo[2.2.2]octane; bromide], the Ki is < 5 nM.

As to `OC(c1ccccc1)(c1ccccc1)c1noc(C[N+]23CCC(CC2)[C@@H](Sc2ccccc2)C3)n1` [Example 118, (R)-1-[3-(Hydroxy-diphenyl-methyl)-[1,2,4]oxadiazol-5-ylmethyl]-3-phenylsulfanyl-1-azonia-bicyclo[2.2.2]octane; chloride], the Ki was < 5 nM.

For the compound `O[C@](c1ccccc1)(c1ncc(C[N+]23CCC(CC2)[C@@H](SC2CCCCC2)C3)o1)C1CCCCC1` [Example 119, (R)-1-[2-((R)—Cyclohexyl-hydroxy-phenyl-methyl)-oxazol-5-ylmethyl]-3-cyclohexylsulfanyl-1-azonia-bicyclo[2.2.2]octane; bromide], the Ki is < 5 nM.

As to `C=CCOCC1C[N+]2(Cc3cnc([C@](O)(c4ccccc4)C4CCCCC4)o3)CCC1CC2` (single isomer, unassigned) [Example 89, formate], the Ki is < 5 nM.

For the compound `O[C@](c1ccccc1)(c1ncc(C[N+]23CCC(CC2)[C@@H](Sc2cccc(F)c2)C3)o1)C1CCCCC1` [Example 105, (R)-1-[2-((R)—Cyclohexyl-hydroxy-phenyl-methyl)-oxazol-5-ylmethyl]-3-(3-fluoro-phenylsulfanyl)-1-azonia-bicyclo[2.2.2]octane; bromide], the Ki is < 5 nM.

For `O[C@](c1ccccc1)(c1nnc(C[N+]23CCC(CC2)[C@H](CSc2ccccc2)C3)o1)C1CCCCC1` [Example 121, (S)-1-[5-((R)—Cyclohexyl-hydroxy-phenyl-methyl)-[1,3,4]oxadiazol-2-ylmethyl]-3-phenylsulfanylmethyl-1-azonia-bicyclo[2.2.2]octane; bromide], the Ki is < 5 nM.

Turning to `O[C@](c1ccccc1)(c1ncc(C[N+]23CCC(CC2)[C@@H](OCc2ccccc2)C3)o1)C1CCCCC1` [Example 12, (R)-3-(Benzyloxy)-1-[2-(R)-cyclohexyl-hydroxy-phenyl-methyl)-oxazol-5-ylmethyl]-1-azonia-bicyclo[2.2.2]octane; bromide], the Ki was < 5 nM.

Regarding `OC(c1ccccc1)(c1noc(C[N+]23CCC(CC2)[C@@H](Oc2cccc(F)c2)C3)n1)C1CCCCC1` (single isomer, unassigned) [Example 128], the Ki was < 5 nM.

With `OC(c1ccccc1)(c1ccccc1)c1ncc(C[N+]23CCC(CC2)[C@H](COc2ccccc2)C3)o1` [Example 92, (S)-1-[2-(Hydroxy-diphenyl-methyl)-oxazol-5-ylmethyl]-3-phenoxymethyl-1-azonia-bicyclo[2.2.2]octane; bromide], the Ki lay within 5 to 20 nM.
